According to US20100325756A1, “PLASTID TRANSFORMATION UTILIZING ENDOGENOUS REGULATORY ELEMENTS” (priority 2009, published 2010):

How the values were obtained:
Type in all cases: cell-based
[1] = test system: L. sativa cultivar Evola (LE) leaf explants; assay: Direct shoot regeneration from leaf explants, cultivar Evola (LE)
Description: (§1) Seeds of L. sativa cultivars (New England Seed Co., Hartford, Conn.) were disinfected in a solution of 30% commercial bleach with 0.01%, Tween-20 for 5 min, rinsed five times in sterile water and placed on half strength Murashige and Skoog (MS; Murashige and Skoog, 1962) medium solidified with 0.6% Phytablend® (Caisson, N. Logan, Utah). After 21 days, fully expanded first leaves were dissected into 0.8 cm^2 and placed adaxial side on the medium. The culture medium was composed of MS basal salts, 3% sucrose and 0.6% Phytablend. Plant growth regulators were added to the medium as shown in table 1 and pH was adjusted to 5.8 prior autoclaving. Cultures were maintained at 26±2° C. at 40 μE m^2 s^−1 photon density; 16 hrs light/8 hrs dark.

[2] = test system: L. sativa cultivar Romaine (LR) leaf explants; assay: Direct shoot regeneration from leaf explants, cultivar Romaine (LR)
Description: as §1

[3] = test system: L. sativa cultivar Great Lake (LG) leaf explants; assay: Direct shoot regeneration from leaf explants, cultivar Great Lake (LG)
Description: as §1

[4] = test system: L. sativa cultivar Simpson Elite (LS) leaf explants; assay: Direct shoot regeneration from leaf explants, cultivar Simpson Elite (LS)
Description: as §1

[5] = test system: L. sativa cultivar Lentissima (LL) leaf explants; assay: Direct shoot regeneration from leaf explants, cultivar Lentissima (LL)
Description: as §1

Measured: EFF: Number of regenerated shoots/total explants

c1ccc(CNc2ncnc3[nH]cnc23)cc1 [BAP]
0: [1]; BAP 0.1 μg ml^−1 alone | [2]; BAP 0.1 μg ml^−1 alone | [3]; BAP 0.1 μg ml^−1 alone | [4]; BAP 0.1 μg ml^−1 alone | [5]; BAP 0.1 μg ml^−1 alone

O=C(O)Cc1cccc2ccccc12 [NAA]
0: [1]; NAA 0.1 μg ml^−1 alone | [2]; NAA 0.1 μg ml^−1 alone | [3]; NAA 0.1 μg ml^−1 alone | [4]; NAA 0.1 μg ml^−1 alone | [5]; NAA 0.1 μg ml^−1 alone
